Measurements from US20240374623A1, “TKTL1 INHIBITORS FOR ANTIVIRAL THERAPY” (Tavargenix GmbH, priority 2021, published 2024).

Experiments:
[1] = tested on: C-reactive protein (CRP); experiment: Individual curative trials in hospitalized COVID-19 patients: C-reactive protein level; type: in vivo, human; set-up: unit not given here
[2] = tested on: interleukin-6 (IL-6); experiment: Individual curative trials in hospitalized COVID-19 patients: interleukin-6 level; type: in vivo, human
[3] = tested on: SARS-CoV-2; experiment: Individual curative trials in hospitalized COVID-19 patients: viral load by PCR; type: in vivo, human; details: daily less than 20 mg B-OT per 70 kg body weight over 7 days
[4] = tested on: human cytomegalovirus (HCMV); experiment: HCMV-EYFP replication in human embryonic lung fibroblasts (HEL), fluorescence-based antiviral assay; type: cell-based; details: HCMV-EYFP-infected HEL cells, 48 h incubation; read-out: 50% inhibitory concentration (IC50), EYFP emission reduced by half
Procedure: Furthermore, the sensitivity of HCMV replication to B-OT in human mammalian cells was investigated. For this purpose, experiments were performed as described in the work of Dal Pozzo et al. 2008 with B-OT: Human embryonic lung fibroblasts (HEL) were infected with recombinant HCMV EYFP viruses additionally encoding enhanced yellow fluorescent protein (EYFP) (Dal Pozzo F, et al., 2008). As a measure of viral replication after infection with HCMV-EYFP, the emission of the EYFP protein was measured (excitation wavelength: 485 nm/emission: 530 nm). The constant and low cell-associated background emission measured in an automated manner was subtracted from the fluorescence emission value. To test the antiviral effect of B-OT, HCMV-EYFP-infected cells were incubated for 48 h with different B-OT concentrations (0 to 20 mM B-OT). Dose-dependent inhibition of fluorescence (as a measure of viral replication) was evident. The required compound concentration that reduced EYFP emission by half compared with untreated controls (0 mM B-OT) was defined as the 50% inhibitory concentration (IC50) in the fluorescence-based antiviral assay. The IC50 determined here was 0.5 mM B-OT.

[5] = In vivo pharmacokinetics: blood-brain barrier penetration; details: in vivo pharmacokinetics data
Description: A preferred inhibitory thiamine analog is the substance benfo-oxythiamine (B-OT). B-OT is a precursor (“pro-pharmacon”, “prodrug”) of oxythiamine, can be applied orally and releases oxythiamine shortly after its uptake into the mammalian organism. Via the bloodstream, B-OT can reach all cells in all parts of the body.

[6] = tested on: TKTL1 promoter; set-up: dose or concentration left out as unconfirmed; details: HeLa cells, resveratrol for 48 h; cited from earlier work
[7] = tested on: SARS-CoV-2 infected Caco-2 cells; details: human
[8] = tested on: HeLa cells; details: cited from earlier work
[9] = tested on: TKTL1 mRNA; type: cell-based, human; details: different resveratrol concentrations, 24 h
[10] = tested on: SARS-CoV-2; type: cell-based; details: 25 μM resveratrol for 48 h, Caco-2 cells
[11] = daily less than 20 mg B-OT per 70 kg, after 7 days
[12] = hospitalized COVID-19 patients, start of therapy

SMILES: C/C(=C(\CCOP(=O)(O)O)SC(=O)c1ccccc1)N(C=O)Cc1cnc(C)[nH]c1=O [B-OT, benfo-oxythiamine]
- average CRP level under 7-day B-OT therapy [1, 11]: 5
- average CRP level before B-OT therapy [1, 12]: 77
- average IL-6 level under 7-day B-OT therapy [2, 11]: 5 pg/mL
- average IL-6 level before B-OT therapy [2, 12]: 63 pg/mL
- viral load as detected by PCR [3]: significant reduction in viral load
- IC50 [4]: 500 µM

SMILES: Cc1ncc(C[n+]2csc(CCO)c2C)c(=O)[nH]1 [oxythiamine]
- blood-brain barrier penetration [5]: can penetrate the blood-brain barrier

SMILES: Oc1ccc(C=Cc2cc(O)cc(O)c2)cc1 [resveratrol]
- reduction in TKTL1 promoter activity compared to untreated cells [6]: 75%
- viability of Caco-2 cells [7]: 93%
- viability of HeLa cells [8]: significant decrease in the viability of HeLa cells
- reduction of TKTL1 mRNA [9]: the higher the concentration the stronger the reduction
- decrease of replication ability of SARS-CoV-2 viruses compared to the control [10]: 68%
